The test addresses T1, IRAK4 (Homo sapiens, UniProt Q9NWZ3).
T1 sequence (Q9NWZ3 1-460): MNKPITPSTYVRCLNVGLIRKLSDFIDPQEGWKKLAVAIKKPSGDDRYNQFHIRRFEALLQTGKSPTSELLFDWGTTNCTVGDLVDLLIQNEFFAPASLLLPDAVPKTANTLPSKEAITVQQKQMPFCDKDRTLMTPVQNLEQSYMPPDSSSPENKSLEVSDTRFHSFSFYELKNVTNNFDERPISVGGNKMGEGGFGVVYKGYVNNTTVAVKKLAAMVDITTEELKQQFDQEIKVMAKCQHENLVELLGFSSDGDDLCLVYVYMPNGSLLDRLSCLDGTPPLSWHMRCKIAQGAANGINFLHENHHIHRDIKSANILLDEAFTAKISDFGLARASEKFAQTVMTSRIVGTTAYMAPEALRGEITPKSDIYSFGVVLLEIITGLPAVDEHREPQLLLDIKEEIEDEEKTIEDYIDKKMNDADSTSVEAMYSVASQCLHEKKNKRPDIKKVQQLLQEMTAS
Description: Assay for inhibitory effect of compound on IRAK4 kinase activity (KinEASE-STK S1 HTRF kit). Format: biochemical. In a few lines:
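HTRF assay: 8 nM IRAK4 preincubated 15 minutes at rt with compound (final 5,000–0.0254 nM, 3-fold dilutions), then 400 nM biotinylated STK1 substrate and 80 µM ATP, 90 minutes at 37°C. Eu-cryptate anti-phospho-Ser/Thr antibody and streptavidin-XL665 detection, 665/620 ratio; IC50 from nonlinear fit of inhibition.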

Setting [1] is: kinase 8 nM, ATP 80 µM, 37°C 90 minutes, read-out: IRAK4 HTRF IC50.

Structures are written as SMILES. Read-outs that look alike come from different tables or passages of the source.

Here are results for 39 compounds from patent publication EP4763839A1 (Pamplona Therapeutics (Shenzhen) Co., Ltd., priority 2023, dated 2025).

As for `O=C(Nc1cn(-c2ccccc2)nc1C1CC1)c1cccc(C(F)(F)F)n1` [Compound A71, N-(3-cyclopropyl-1-phenyl-1H-pyrazol-4-yl)-6-(trifluoromethyl)picolinamide], under setting [1], the IC50 is > 1 µM.

On to `CC(=O)NCc1ccc(-n2cc(NC(=O)c3cccc(C(F)(F)F)n3)c(C(N)=O)n2)cc1` [Compound A23], for which the half-maximal inhibitory concentration (IC50) under setting [1] is < 0.1 µM.

`NC(=O)c1nn(-c2ccc(C(=O)O)nc2)cc1NC(=O)c1cccc(C(F)(F)F)n1` [Compound A31] yielded a half-inhibitory concentration (IC50) of 0.1 to 1 µM.

`O=C(Nc1cn(-c2ccccc2)nc1OCC(F)(F)F)c1cccc(-c2ccn[nH]2)n1` [Compound A238, N-(1-Phenyl-3-(2,2,2-trifluoroethoxy)-1H-pyrazol-4-yl)-6-(1H-pyrazol-5-yl)picolinamide]: the IC50 under setting [1] was < 0.1 µM.

For the compound `NC(=O)c1nn(-c2cccnc2)cc1NC(=O)c1cccc(C(F)(F)F)n1` [Compound A29], the concentration for half-maximal inhibition (IC50) under setting [1] is 0.1 to 1 µM.

Regarding `NC(=O)c1nn(-c2ccccc2)cc1NC(=O)c1cccc(-c2c[nH]cn2)n1` [Compound A90], the half-inhibitory concentration (IC50) under setting [1] was < 0.1 µM.

On to `NC(=O)c1nn(C2CC(N)C2)cc1NC(=O)c1cccc(C(F)(F)F)n1` (stereo not drawn) [Compound A32], for which the IC50 under setting [1] was < 0.1 µM.

`O=C(Nc1cn(-c2ccccc2)nc1C(=O)NC1CC1(F)F)c1cccc(-c2ccn[nH]2)n1` (stereo not drawn) [Compound A251, N-(3-((2,2-Difluorocyclopropyl)carbamoyl)-1-phenyl-1H-pyrazol-4-yl)-6-(1H-pyrazol-5-yl)picolinamide]: the 50% inhibitory concentration (IC50) under setting [1] was < 0.1 µM.

As for `N#Cc1cnn2c(C(=O)Nc3cn(C4CC5(CCNCC5)C4)nc3C(F)F)ccc2c1` [Compound A229, 3-Cyano-N-(3-(difluoromethyl)-1-(7-azaspiro[3.5]nonan-2-yl)-1H-pyrazol-4-yl)pyrrolo[1,2-b]pyridazine-7-carboxamide], the IC50 under setting [1] is < 0.1 µM.

Take `CC(F)(F)c1cccc(C(=O)Nc2cn(-c3ccccc3)nc2C(=O)NC2CC2)n1` [Compound A265, N-(3-(Cyclopropylcarbamoyl)-1-phenyl-1H-pyrazol-4-yl)-6-(1,1-difluoroethyl)picolinamide]: the 50% inhibitory concentration (IC50) under setting [1] was in the range of 0.1 to 1 µM.

With `COc1nn(C2CCC2)cc1NC(=O)c1cnn2ccc(-c3cn[nH]c3)nc12` [Compound A289, N-(1-cyclobutyl-3-methoxy-1H-pyrazol-4-yl)-5-(1H-pyrazol-4-yl)pyrazolo[1,5-a]pyrimidine-3-carboxamide], the IC50 under setting [1] was < 0.1 µM.

Turning to `CC(=O)N(C)Cc1ccc(-n2cc(NC(=O)c3cccc(C(F)(F)F)n3)c(C(N)=O)n2)cc1` [Compound A24], under setting [1], the IC50 is < 0.1 µM.

Regarding `CNCc1ccc(-n2cc(NC(=O)c3cccc(C(F)(F)F)n3)c(C(N)=O)n2)cc1` [Compound A21], the IC50 under setting [1] is < 0.1 µM.

With `NC(=O)c1sc(-c2ccccc2)nc1NC(=O)c1cccc(C(F)(F)F)n1` [Compound A55, 2-Phenyl-4-(6-(trifluoromethyl)picolinamido)thiazole-5-carboxamide], the IC50 under setting [1] was > 1 µM.

Regarding `NS(=O)(=O)c1nn(-c2ccccc2)cc1NC(=O)c1cccc(-c2cc[nH]c2)n1` [Compound A95, N-(1-phenyl-3-sulfamoyl-1H-pyrazol-4-yl)-6-(1H-pyrrol-3-yl)picolinamide], under setting [1], the half-maximal inhibitory concentration (IC50) was < 0.1 µM.

In the case of `NS(=O)(=O)c1nn(-c2ccccc2)cc1NC(=O)c1cccc(-c2cc[nH]n2)n1` [Compound A92, N-(1-phenyl-3-sulfamoyl-1H-pyrazol-4-yl)-6-(1H-pyrazol-3-yl)picolinamide], the 50% inhibitory concentration (IC50) under setting [1] was < 0.1 µM.

With `O=C(Nc1cn(-c2ccccc2)nc1C(F)F)c1cccc(-c2ccn[nH]2)n1` [Compound A239, N-(3-(Difluoromethyl)-1-phenyl-1H-pyrazol-4-yl)-6-(1H-pyrazol-5-yl)picolinamide], the half-maximal inhibitory concentration (IC50) under setting [1] is < 0.1 µM.

As for `NC(=O)c1nn(C2CCC(N)CC2)cc1NC(=O)c1cccc(C(F)(F)F)n1` (stereo not drawn) [Compound A36], under setting [1], the IC50 lay in the range of 0.1 to 1 µM.

For the compound `NC(=O)c1nn(C2COC3(CCNCC3)C2)cc1NC(=O)c1cccc(C(F)(F)F)n1` (stereo not drawn) [Compound A35], under setting [1], the half-maximal inhibitory concentration (IC50) lay within 0.1 to 1 µM.

`COc1nn(-c2ccc(N3CCNCC3)cc2)cc1NC(=O)c1cccc(C(F)(F)F)n1` [Compound A39]: the IC50 was 0.1 to 1 µM.

Regarding `CC(C)(O)c1nn(-c2ccccc2)cc1NC(=O)c1ccc2cc(C#N)cnn12` [Compound A232, 3-Cyano-N-(3-(2-hydroxypropan-2-yl)-1-phenyl-1H-pyrazol-4-yl)pyrrolo[1,2-b]pyridazine-7-carboxamide], the IC50 under setting [1] was < 0.1 µM.

Regarding `NC(=O)c1nn(C2CCNCC2)cc1NC(=O)c1cccc(C(F)(F)F)n1` [Compound A3], the IC50 under setting [1] is 0.1 to 1 µM.

For the compound `CC(C)(O)c1nn(C2CCC2)cc1NC(=O)c1ccn2ncc(-c3ccn[nH]3)c2n1` [Compound A281, N-(1-cyclobutyl-3-(2-hydroxypropan-2-yl)-1H-pyrazol-4-yl)-3-(1H-pyrazol-5-yl)pyrazolo[1,5-a]pyrimidine-5-carboxamide], the half-inhibitory concentration (IC50) under setting [1] fell in the range of 0.1 to 1 µM.

As for `O=C(Nc1cn(-c2ccc(N3CCNCC3)cc2)nc1C(F)F)c1cccc(C(F)(F)F)n1` [Compound A42], the IC50 under setting [1] is < 0.1 µM.

`CC(C)n1nc(-c2ccccc2)nc1NC(=O)c1cccc(C(F)(F)F)n1` [Compound A108, N-(1-Isopropyl-3-phenyl-1H-1,2,4-triazol-5-yl)-6-(trifluoromethyl)picolinamide]: under setting [1], the concentration for half-maximal inhibition (IC50) is > 1 µM.

Regarding `O=C(Nc1cn(C2CCC2)nc1C(F)F)c1cnn2ccc(-c3ccn[nH]3)nc12` [Compound A291, N-(1-cyclobutyl-3-(difluoromethyl)-1H-pyrazol-4-yl)-5-(1H-pyrazol-5-yl)pyrazolo[1,5-a]pyrimidine-3-carboxamide], under setting [1], the half-inhibitory concentration (IC50) was < 0.1 µM.

Consider `COc1nn(-c2ccccc2)cc1NC(=O)c1cccc(C(=O)c2cn[nH]c2)n1` [Compound A262, N-(3-methoxy-1-phenyl-1H-pyrazol-4-yl)-6-(1H-pyrazole-4-carbonyl)picolinamide], for which the IC50 under setting [1] was < 0.1 µM.

Consider `NC(=O)c1nn(C2CCC2)cc1NC(=O)c1ccn2ncc(-c3ccn[nH]3)c2n1` [Compound A280, N-(3-carbamoyl-1-cyclobutyl-1H-pyrazol-4-yl)-3-(1H-pyrazol-5-yl)pyrazolo[1,5-a]pyrimidine-5-carboxamide], for which, under setting [1], the IC50 fell in the range of 0.1 to 1 µM.

For the compound `NC(=O)c1sc(-c2ccccc2)cc1NC(=O)c1cccc(C(F)(F)F)n1` [Compound A50], the 50% inhibitory concentration (IC50) under setting [1] is > 1 µM.

Regarding `CC(C)n1cc(-c2ccccc2)nc1NC(=O)c1cccc(C(F)(F)F)n1` [Compound A107, N-(1-isopropyl-4-phenyl-1H-imidazol-2-yl)-6-(trifluoromethyl)picolinamide], under setting [1], the IC50 was > 1 µM.

For the compound `O=C(Nc1cn(C2CCC2)nc1C(=O)NC1CC1)c1cccc(-c2ccn[nH]2)n1` [Compound A252, N-(1-Cyclobutyl-3-(cyclopropylcarbamoyl)-1H-pyrazol-4-yl)-6-(1H-pyrazol-5-yl)picolinamide], the IC50 under setting [1] is < 0.1 µM.

Turning to `O=C(Nc1cn(-c2ccccc2)nc1C1CCN1)c1cccc(-c2ccn[nH]2)n1` (stereo not drawn) [Compound A245, N-(3-(Azetidin-2-yl)-1-phenyl-1H-pyrazol-4-yl)-6-(1H-pyrazol-5-yl)picolinamide], the 50% inhibitory concentration (IC50) under setting [1] is > 1 µM.

For the compound `COc1nn(C2CC3(CCNCC3)C2)cc1NC(=O)c1ccc2cc(C#N)cnn12` [Compound A230, 3-Cyano-N-(3-methoxy-1-(7-azaspiro[3.5]nonan-2-yl)-1H-pyrazol-4-yl)pyrrolo[1,2-b]pyridazine-7-carboxamide], the half-maximal inhibitory concentration (IC50) under setting [1] is < 0.1 µM.

Consider `NS(=O)(=O)c1cn(-c2ccccc2)nc1NC(=O)c1cccc(C(F)(F)F)n1` [Compound A59, N-(1-phenyl-4-sulfamoyl-1H-pyrazol-3-yl)-6-(trifluoromethyl)picolinamide], for which, under setting [1], the half-maximal inhibitory concentration (IC50) was > 1 µM.

On to `CS(=N)(=O)c1cn(-c2ccccc2)nc1NC(=O)c1cccc(C(F)(F)F)n1` (stereo not drawn) [Compound A60], for which the 50% inhibitory concentration (IC50) was > 1 µM.

Regarding `NC(=O)c1nn(-c2ccccc2)cc1NC(=O)c1cccc(-c2nc[nH]n2)n1` [Compound A457, N-(3-Carbamoyl-1-phenyl-1H-pyrazol-4-yl)-6-(1H-1,2,4-triazol-3-yl)picolinamide], under setting [1], the half-inhibitory concentration (IC50) lay in the range of 0.1 to 1 µM.

With `NC(=O)c1cc(-c2ccccc2)oc1NC(=O)c1cccc(C(F)(F)F)n1` [Compound A53], under setting [1], the concentration for half-maximal inhibition (IC50) is > 1 µM.

For `O=C(Nc1cn(C2CCNC2)nc1C(=O)NC1CC1)c1cccc(-c2ccn[nH]2)n1` (stereo not drawn) [Compound A254, N-(3-(Cyclopropylcarbamoyl)-1-(pyrrolidin-3-yl)-1H-pyrazol-4-yl)-6-(1H-pyrazol-5-yl)picolinamide], under setting [1], the IC50 was in the range of 0.1 to 1 µM.

On to `COc1nn(C2CCCCC2)cc1NC(=O)c1cccc(-c2ccn[nH]2)n1` [Compound A263, N-(1-Cyclohexyl-3-methoxy-1H-pyrazol-4-yl)-6-(1H-pyrazol-5-yl)picolinamide], for which the 50% inhibitory concentration (IC50) under setting [1] is 0.1 to 1 µM.
